Data published in patent US9290485B2, “N-((6-amino-pyridin-3-yl)methyl)-heteroaryl-carboxamides” (NOVARTIS AG, priority 2010, dated 2016).

Each molecule was assayed against human plasma kallikrein (Homo sapiens (Human), UniProt P03952). Settings: human plasma kallikrein 25 pM, substrate 0.5 uM, 1 hour pre-incubation at room temperature, read at t=60 min.
human plasma kallikrein, sequence (P03952 whole entry, looked up): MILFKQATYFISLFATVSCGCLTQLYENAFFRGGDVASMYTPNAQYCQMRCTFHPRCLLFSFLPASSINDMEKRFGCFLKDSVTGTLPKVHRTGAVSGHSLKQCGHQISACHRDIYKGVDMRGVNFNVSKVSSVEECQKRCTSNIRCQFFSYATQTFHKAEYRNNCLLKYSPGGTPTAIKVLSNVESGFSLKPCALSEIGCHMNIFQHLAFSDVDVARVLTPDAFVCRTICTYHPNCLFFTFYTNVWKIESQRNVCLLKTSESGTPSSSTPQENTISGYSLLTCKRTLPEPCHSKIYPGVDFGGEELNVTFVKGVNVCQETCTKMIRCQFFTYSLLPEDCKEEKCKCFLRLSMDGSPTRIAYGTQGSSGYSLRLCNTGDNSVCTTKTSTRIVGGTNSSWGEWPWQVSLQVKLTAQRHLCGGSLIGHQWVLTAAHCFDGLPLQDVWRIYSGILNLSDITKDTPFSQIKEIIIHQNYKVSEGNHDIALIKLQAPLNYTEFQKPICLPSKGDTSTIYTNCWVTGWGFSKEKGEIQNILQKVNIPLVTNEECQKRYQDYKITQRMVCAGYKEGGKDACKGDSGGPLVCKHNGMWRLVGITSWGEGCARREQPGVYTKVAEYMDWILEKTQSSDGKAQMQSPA
human plasma kallikrein, sequence (P03952 whole entry partner, looked up): as the sequence (P03952 whole entry, looked up) above
With `Cc1noc(-c2ccc(Cn3cc(C(=O)NCc4c(C)cc(N)nc4C)cn3)cc2)n1` [Example 91, N-((6-amino-2,4-dimethylpyridin-3-yl)methyl)-1-(4-(3-methyl-1,2,4-oxadiazol-5-yl)benzyl)-1H-pyrazole-4-carboxamide] the IC50 was 0.133 µM. `Cc1cc(N)nc(C)c1CNC(=O)c1cnn(Cc2cccc(Cl)c2)c1` [Example 92, N-((6-amino-2,4-dimethylpyridin-3-yl)methyl)-1-(3-chlorobenzyl)-1H-pyrazole-4-carboxamide] gave an IC50 of 0.867 µM. For `Cc1cc(N)nc(C)c1CNC(=O)c1cnn(Cc2ccc(F)cc2F)c1` [Example 93, N-((6-amino-2,4-dimethylpyridin-3-yl)methyl)-1-(2,4-difluorobenzyl)-1H-pyrazole-4-carboxamide], the IC50 was 0.674 µM. For `Cc1cc(N)nc(C)c1CNC(=O)c1cnn(Cc2ccc(OCc3ccccc3)cc2)c1` [Example 94, N-((6-amino-2,4-dimethylpyridin-3-yl)methyl)-1-(4-(benzyloxy)benzyl)-1H-pyrazole-4-carboxamide], the IC50 was 0.0021 µM. `Cc1cc(N)nc(C)c1CNC(=O)c1cnn(Cc2cccc3c2OCCCO3)c1` [Example 95, N-((6-amino-2,4-dimethylpyridin-3-yl)methyl)-1-((3,4-dihydro-2H-benzo[b][1,4]dioxepin-6-yl)methyl)-1H-pyrazole-4-carboxamide] was tested, and the IC50 was 0.485 µM. For `Cc1cc(N)nc(C)c1CNC(=O)c1cnn(Cc2ccc(Cl)cc2)c1` [Example 96, N-((6-amino-2,4-dimethylpyridin-3-yl)methyl)-1-(4-chlorobenzyl)-1H-pyrazole-4-carboxamide], the IC50 was 0.291 µM. Work on `Cc1nc(Cn2cc(C(=O)NCc3c(C)cc(N)nc3C)cn2)cs1` [Example 97, N-((6-amino-2,4-dimethylpyridin-3-yl)methyl)-1-((2-methylthiazol-4-yl)methyl)-1H-pyrazole-4-carboxamide] yielded an IC50 of 1.9 µM. In the case of `Cc1cc(N)nc(C)c1CNC(=O)c1cnn(Cc2cccnc2)c1` [Example 98, N-((6-amino-2,4-dimethylpyridin-3-yl)methyl)-1-(pyridin-3-ylmethyl)-1H-pyrazole-4-carboxamide], the IC50 is reported as 3.8 µM. With `Cc1cc(N)nc(C)c1CNC(=O)c1cnn(C(C)c2ccccc2)c1` (stereo not drawn) [Example 100, N-((6-amino-2,4-dimethylpyridin-3-yl)methyl)-1-(1-phenylethyl)-1H-pyrazole-4-carboxamide] the IC50 was 0.642 µM. For `Cc1cc(N)nc(C)c1CNC(=O)c1cnn(Cc2ccc3c(c2)nnn3C)c1` [Example 101, N-((6-amino-2,4-dimethylpyridin-3-yl)methyl)-1-((1-methyl-1H-benzo[d][1,2,3]triazol-5-yl)methyl)-1H-pyrazole-4-carboxamide], the IC50 was 0.07 µM. `Cc1cc(N)nc(C)c1CNC(=O)c1cnn(Cc2cccc(C(N)=O)c2)c1` [Example 102, N-((6-amino-2,4-dimethylpyridin-3-yl)methyl)-1-(3-carbamoylbenzyl)-1H-pyrazole-4-carboxamide] was tested, and the IC50 was 4 µM. `Cc1cc(N)nc(C)c1CNC(=O)c1cnn(Cc2ccc3c(c2)OCO3)c1` [Example 103, N-((6-amino-2,4-dimethylpyridin-3-yl)methyl)-1-(benzo[d][1,3]dioxol-5-ylmethyl)-1H-pyrazole-4-carboxamide] gave an IC50 of 0.299 µM. With `Cc1cc(N)nc(C)c1CNC(=O)c1cnn(Cc2nc3ccccc3s2)c1` [Example 105, N-((6-amino-2,4-dimethylpyridin-3-yl)methyl)-1-(benzo[d]thiazol-2-ylmethyl)-1H-pyrazole-4-carboxamide] the IC50 was 0.168 µM. With `Cc1cc(N)nc(C)c1CNC(=O)c1cnn(Cc2noc3ccccc23)c1` [Example 106, N-((6-amino-2,4-dimethylpyridin-3-yl)methyl)-1-(benzo[d]isoxazol-3-ylmethyl)-1H-pyrazole-4-carboxamide] the IC50 was 0.415 µM. For `Cc1cc(N)nc(C)c1CNC(=O)c1cn(Cc2ccccc2C#N)c2ccccc12` [Example 107, N-((6-amino-2,4-dimethylpyridin-3-yl)methyl)-1-(2-cyanobenzyl)-1H-indole-3-carboxamide], the IC50 was 1.8 µM.
